Consider 1 compound from paper PMC10893631, “Receptor-based pharmacophore modeling, molecular docking, synthesis and biological evaluation of novel VEGFR-2, FGFR-1, and BRAF multi-kinase inhibitors” (BMC Chemistry, 2024).

The structures appear in SMILES notation.

Data set [1] deals with MCF-7 cells. Put plainly: Cell cycle analysis by PI flow cytometry. Type of data set: cell-based. As to conditions: MCF-7, at GI50 concentration. Here is the method:
After the cells were handled as previously described, the distribution of the cells at each stage of the cell cycle was analysed. (For further details see Additional file 1: section II: practical results).
6. Analysis of Cell Cycle Distribution
(§1) MCF-7: Breast Adenocarcinoma was obtained from Nawah Scientific Inc., (Mokatam, Cairo, Egypt). Cells were maintained in DMEM media supplemented with […] of streptomycin, 100 units/mL of penicillin and 10% of heat-inactivated fetal bovine serum in humidified, 5% (v/v) CO2 atmosphere at 37 °C. […]
cells) are collected by trypsinization and washed twice with ice-cold PBS (pH 7.4). Cells are re-suspended in two milliliters of 60% ice-cold ethanol and incubated at 4 °C for 1 h for fixation. Fixed cells are washed twice again with PBS (pH 7.4) and re-suspended in 1 mL of PBS containing 50 µg/mL RNAase A and 10 µg/mL propidium iodide (PI). After 20 min of incubation in dark at 37 C, cells are analyzed for DNA contents using flow cytometry analysis using FL2 (λex/em 535/617 nm) signal detector (ACEA Novocyte™ flowcytometer, ACEA Biosciences Inc., San Diego, CA, USA). For each sample, 12,000 events are acquired.
Cell cycle distribution is calculated using ACEA NovoExpress™ software (ACEA Biosciences Inc., San Diego, CA, USA).
*G0/G1-phase: This phase denotes the non-proliferating cells. Compounds with antiproliferative effect (regardless of their cytotoxicity) are expected to increase this cell […]
*S-phase: This phase denotes proliferating cells and particularly the cells who are undergoing DNA synthesis step of replication. Some compounds might induce S-phase […]
*G2/M-phase: This phase indicates the final phase of cell replication (mitosis). […]
On the technique in general: A flow cytometer gives signals particle by particle.

Data set [2] concerns MCF-7 cells. The experiment in a line: Annexin V-FITC apoptosis assay. The conditions noted are these: MCF-7, at GI50 concentration. Type of data set: cell-based. Here is the method:
As previously reported, the Annexin V-FITC apoptosis detection kit (Abcam Inc., Cambridge, UK) in conjunction with two fluorescent channels flow cytometry was used to identify the populations of apoptosis and necrosis cells. (For further details see Additional file 1: section II: practical results). […]
as §1
Biosciences Inc., San Diego, CA, USA). […]
Apoptosis and necrosis cell populations are determined using Annexin V-FITC apoptosis detection kit (Abcam Inc., Cambridge Science Park, Cambridge, UK) coupled with 2 fluorescent channels flowcytometry. After treatment with test compounds for 48h, cells (105 […]
trypsinization and washed twice with ice-cold PBS (pH 7.4). Then, cells are incubated in dark with 0.5 ml of Annexin V-FITC/PI solution for 30 min in dark at room temperature according to manufacturer protocol. After staining, cells are injected via ACEA

A further data set concerns the target T1, BRAF (WT) (Homo sapiens, UniProt P15056).
T1 construct: purchased BPS Biosciences 78316
Put plainly: BRAF kinase assay kit (BPS), Kinase-Glo Max luminescence. Type of data set: biochemical. Here is the method: (§2) 2. Biochemical kinase assay procedure
The inhibitory activity against different kinases was determined using kinase kits […]
from BPS Biosciences and kinase-Glo Max luminescence kinase assay kit (Promega).
(§3) The assay was carried out according to the protocol provided by the manufacturer. A stock solution of the synthesized derivatives in 100% DMSO was prepared. Subsequently, the compounds were diluted to 10% DMSO.
(§4) A master mixture was prepared according to the number of wells. For VEGFR-2 and FGFR-1 biochemical assays each well include 6 μl of 5x Kinase Buffer 1 + 1 μl of 500 μM ATP + 1 μl of PTK Substrate (Poly-Glu,Tyr 4:1) (10 mg/ml) + 17 μl of distilled water. […]
(§5) The plate was incubated at 30 °C for 45 min. Subsequently, 50 μl of Kinase-Glo Max luminescence reagent was added to each well and the plate was covered with aluminum foil and incubated at room temperature 15 min. Finally, the luminescence was recorded using multimode microplate reader. […]
(§6) The luminescence data were analyzed as follows. The difference between luminescence intensities in the absence of kinase (Lut) and in the presence of kinase (Luc) was defined as 100 % activity (Lut – Luc). Using luminescence signal (Lu) in the presence of the compound, % activity was calculated as: % activity = {(Lut - Lu)/(Lut - Luc)}×100%. […]

The target of another data set is T2, FGFR-1 (Homo sapiens, UniProt P11362).
T2 construct: purchased BPS Biosciences 40210
T2 sequence (P11362 22-822): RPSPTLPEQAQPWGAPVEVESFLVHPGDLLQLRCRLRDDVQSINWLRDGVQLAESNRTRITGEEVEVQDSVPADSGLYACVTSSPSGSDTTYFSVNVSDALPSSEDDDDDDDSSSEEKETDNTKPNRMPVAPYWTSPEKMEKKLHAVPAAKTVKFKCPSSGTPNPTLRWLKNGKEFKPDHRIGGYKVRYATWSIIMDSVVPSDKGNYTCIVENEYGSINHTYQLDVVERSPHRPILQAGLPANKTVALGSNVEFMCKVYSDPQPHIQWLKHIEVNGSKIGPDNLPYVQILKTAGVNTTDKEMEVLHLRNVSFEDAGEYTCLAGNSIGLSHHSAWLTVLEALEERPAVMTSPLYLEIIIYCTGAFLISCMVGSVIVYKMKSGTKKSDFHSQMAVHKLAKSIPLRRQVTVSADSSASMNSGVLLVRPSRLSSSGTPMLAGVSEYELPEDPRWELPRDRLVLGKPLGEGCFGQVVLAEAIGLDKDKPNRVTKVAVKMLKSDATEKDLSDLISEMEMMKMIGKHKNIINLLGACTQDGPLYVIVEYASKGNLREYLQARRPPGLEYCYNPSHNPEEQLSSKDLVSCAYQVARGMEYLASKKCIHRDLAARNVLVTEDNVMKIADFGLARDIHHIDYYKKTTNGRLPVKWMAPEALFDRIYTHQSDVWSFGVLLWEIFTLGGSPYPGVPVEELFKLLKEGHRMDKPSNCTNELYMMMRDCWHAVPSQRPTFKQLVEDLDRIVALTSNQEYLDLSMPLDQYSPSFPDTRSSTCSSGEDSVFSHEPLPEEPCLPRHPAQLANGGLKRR
Put plainly: FGFR-1 kinase assay kit (BPS), Kinase-Glo Max luminescence. Type of data set: biochemical. Here is the method:
as §2
The inhibitory activity against different kinases was determined using kinase kits (VEGFR-2 cat ID: 40325), (FGFR-1 cat ID: 40210), (BRAF (WT) cat. ID: 78316); purchased from BPS Biosciences and kinase-Glo Max luminescence kinase assay kit (Promega).
as §3, §4, §5, §6
For orientation: Kinase-Glo measures the ATP left after a reaction by luminescence.

T1 sequence (P15056 whole entry): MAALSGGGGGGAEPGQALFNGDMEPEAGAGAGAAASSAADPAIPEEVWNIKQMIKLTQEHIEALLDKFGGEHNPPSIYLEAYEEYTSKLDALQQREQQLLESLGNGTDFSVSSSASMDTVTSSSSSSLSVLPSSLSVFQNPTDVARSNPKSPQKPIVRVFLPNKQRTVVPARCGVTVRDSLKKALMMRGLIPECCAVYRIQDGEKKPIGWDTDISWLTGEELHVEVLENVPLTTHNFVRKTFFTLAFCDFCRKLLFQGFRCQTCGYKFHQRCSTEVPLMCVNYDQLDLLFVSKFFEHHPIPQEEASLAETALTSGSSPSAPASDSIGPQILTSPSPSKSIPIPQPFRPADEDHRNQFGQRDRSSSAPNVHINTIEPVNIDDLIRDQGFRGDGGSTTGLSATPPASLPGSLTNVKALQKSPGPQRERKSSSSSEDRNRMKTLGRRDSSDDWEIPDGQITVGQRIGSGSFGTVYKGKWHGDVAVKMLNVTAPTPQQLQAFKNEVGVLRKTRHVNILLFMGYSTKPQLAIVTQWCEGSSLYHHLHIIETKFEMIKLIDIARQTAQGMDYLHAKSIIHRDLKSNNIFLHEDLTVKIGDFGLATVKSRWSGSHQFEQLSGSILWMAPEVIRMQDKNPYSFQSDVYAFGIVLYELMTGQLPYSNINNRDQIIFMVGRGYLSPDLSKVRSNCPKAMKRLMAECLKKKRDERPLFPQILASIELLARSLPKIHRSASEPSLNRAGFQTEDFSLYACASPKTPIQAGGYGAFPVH

As a reminder, the IC50 is the concentration that gives 50% inhibition. A higher IC50 goes with weaker potency in that assay. Regarding `COc1cc(C=NNC(=O)c2ccc3[nH]c(-c4ccc(Cl)cc4)nc3c2)cc(OC)c1OC` [8u, 2-(4-Chlorophenyl)-N'-(3,4,5-trimethoxybenzylidene)-1H-benzo[d]imidazole-5-carbohydrazide], the cell cycle arrest result in the data set on MCF-7 cells [1] is “arrests the MCF-7 cell line at the G2/M phase”. Further, the “%Sub-G1” value with MCF-7 cells [1] (48h, control 2.64) came out at 4.40%. Further, the “%G2/M” value with MCF-7 cells [1] (48h, control 20.60) stood at 25.57%. Besides, the “%S” value in the data set with MCF-7 cells [1] (48h, control 23.10) came to 29.11%. In addition, the “%G0/G1” value with MCF-7 cells [1] (48h, control 56.30) came out at 45.32%. The apoptosis induction entry in the data set with MCF-7 cells [2] is given as “induces cell apoptosis in MCF-7 cell line”. Moreover, the “% necrotic cells (Q2-1)” value with MCF-7 cells [2] (48h) amounted to 1.09%. Also, in the data set on MCF-7 cells [2] (48h), the “% viable cells (Q2-3)” value turned out to be 92.92%. Besides, in the data set on MCF-7 cells [2] (48h, control 0.25%), the “% of cells in early apoptosis (Q2-4)” value came out at 1.46%. Also, the “% of cells in late apoptosis (Q2-2)” value in the data set with MCF-7 cells [2] (48h, control 2.36%) is reported as 4.54%. In addition, the results for the half-inhibitory concentration (IC50) at BRAF (WT) and on FGFR-1 were 0.25 ± 0.03 µM and 3.74 ± 0.34 µM, respectively.
